These results are taken from the supplement of paper PMC5412046.

For assay [1], the system named is SB.mhdgc-1. Nature of the assay: area under the dose-response curve of % viability (trapezoidal, 11 doses) (% viability x log10 concentration); higher = less cytotoxic. To be noted: SB.mhdgc-1 (hereditary c.1380delA CDH1 gastric cancer). The gist of the method: (§1)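 Each entry is viability relative to DMSO, given either at the highest concentration tested or as a trapezoidal area under the curve. Gastric cancer cells from hereditary or sporadic patients (500 cells in 5 μL medium per 1536 well) received compound in DMSO at 11 threefold-diluted concentrations, 23 nL by pintool. Luminescence from CellTiter-Glo was read after 48 h.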

For assay [2], the system named is SB.msgc-1. The assay is described as above. Particulars: SB.msgc-1 (sporadic gastric cancer). The gist of the method:
as §1

For assay [3], the system named is SB.mhdgc-1. Nature of the assay: viability at highest tested concentration (MAXR) relative to DMSO; higher = less cytotoxic. Particulars: SB.mhdgc-1 (hereditary c.1380delA CDH1 gastric cancer). A digest of the protocol:
as §1

Assay [4] deals with SB.msgc-1. Described as above. To be noted: SB.msgc-1 (sporadic gastric cancer). The gist of the method:
as §1

Structures can show the parent of a compound that is named as a salt.

For the molecule `[NH2][Pt]([NH2])([Cl])[Cl]` [Cisplatin] (top concentration 46.0829 µM), the entries for the “area under the dose-response curve” value in assay [1] and in assay [2] were 546 and 539, respectively. For the same molecule, the values for the viability in assay [3] and in assay [4] were 74.8% and 106%, respectively.

On to `CN(C)CCCC1(c2ccc(F)cc2)OCc2cc(C#N)ccc21` (stereo unspecified) [Citalopram hydrobromide] (top concentration 46.0829 µM), for which the “area under the dose-response curve” value was 483 in assay [1] and 330 in assay [2]. Besides, the viability in assay [3] was found to be 55.1%; in assay [4], 36.7%.

`Nc1nc(Cl)nc2c1ncn2[C@H]1C[C@H](O)[C@@H](CO)O1` [Cladribine] (top concentration 46.0829 µM): the figures for the “area under the dose-response curve” value in assay [1] and in assay [2] were 372 and 420, respectively. In addition, the figures for the viability in assay [3] and in assay [4] were 37% and 46.6%, respectively.

`CC[C@H]1OC(=O)[C@H](C)[C@@H](O[C@H]2C[C@@](C)(OC)[C@@H](O)[C@H](C)O2)[C@H](C)[C@@H](O[C@@H]2O[C@H](C)C[C@H](N(C)C)[C@H]2O)[C@](C)(OC)C[C@@H](C)C(=O)[C@H](C)[C@@H](O)[C@]1(C)O` [Clarithromycin] (top concentration 46.0829 µM): the “area under the dose-response curve” value in assay [1] came to 386; in assay [2] it was 433. The viability came out at 26.2% in assay [3] and 78.6% in assay [4].

In the case of `CN1CCC[C@@H]1CCO[C@](C)(c1ccccc1)c1ccc(Cl)cc1` [Clemastine fumarate] (top concentration 46.0829 µM), the “area under the dose-response curve” value in assay [1] was 508; in assay [2], 480. The results for the viability in assay [3] and in assay [4] were 15.4% and 45.6%, respectively.

As for `Cc1cn([C@@H]2O[C@H](CO)[C@@H](O)[C@@H]2F)c(=O)[nH]c1=O` [Clevudine] (top concentration 46.0829 µM), the “area under the dose-response curve” value in assay [1] was 541; in assay [2] it was 531. Moreover, the results for the viability in assay [3] and in assay [4] were 105% and 111%, respectively.

Take `CCC[C@H]1C[C@H](C(=O)N[C@@H]([C@@H]2O[C@@H](SC)[C@@H](O)[C@@H](O)[C@H]2O)[C@H](C)Cl)N(C)C1` [Clindamycin hydrochloride] (top concentration 46.0829 µM): the figures for the “area under the dose-response curve” value in assay [1] and in assay [2] were 584 and 538, respectively. Also, the viability in assay [3] was 134%; in assay [4] it was 115%.

As to `CCCCCCCCCCCCCCCC(=O)O[C@@H]1[C@@H](O)[C@@H](O)[C@@H]([C@H](NC(=O)[C@@H]2C[C@@H](CCC)CN2C)[C@H](C)Cl)O[C@@H]1SC.Cl` [Clindamycin palmitate] (top concentration 46.0829 µM), the “area under the dose-response curve” value in assay [1] worked out at 533; in assay [2], 583. Besides, the viability in assay [3] amounted to 89.9%; in assay [4] it was 91.8%.

Regarding `CCC(C)(Oc1ccc(C2(c3ccc(OC(C)(CC)C(=O)O)cc3)CCCCC2)cc1)C(=O)O` (stereo unspecified) [Clinofibrate] (top concentration 46.0829 µM), the “area under the dose-response curve” value worked out at 581 in assay [1] and 356 in assay [2]. The viability in assay [3] was found to be 106%; in assay [4] it was 52.9%.

On to `CCC(=O)O[C@@]1([C@@H](C)C[C@H]2[C@@H]3CCC/4=C/C(=O)/C=C\[C@]4(C)[C@@]3(F)[C@@H](O)C[C@]12C)C(=O)CCl` [Clobetasol propionate] (top concentration 46.0829 µM), for which the “area under the dose-response curve” value in assay [1] was 506; in assay [2], 548. Further, the viability was 77.7% in assay [3] and 87.9% in assay [4].

On to `Nc1nc(Cl)nc2c1ncn2[C@@H]1O[C@H](CO)[C@@H](O)[C@@H]1F` [Clofarabine] (top concentration 46.0829 µM), for which the “area under the dose-response curve” value in assay [1] is 278; in assay [2] it was 296. Moreover, the viability is 21.7% in assay [3] and 51.5% in assay [4].

Regarding `CCOC(=O)C(C)(C)Oc1ccc(Cl)cc1` [Clofibrate] (top concentration 46.0829 µM), the “area under the dose-response curve” value in assay [1] turned out to be 543; in assay [2], 515. For the same molecule, the viability was 73.8% in assay [3] and 94.5% in assay [4].

For the molecule `CCN(CC)CCOc1ccc(/C(=C(\Cl)c2ccccc2)c2ccccc2)cc1` [Clomifene citrate] (top concentration 46.0829 µM), the “area under the dose-response curve” value in assay [1] was found to be 454; in assay [2], 496. The viability turned out to be 14.5% in assay [3] and 89.9% in assay [4].

As for `CN(C)CCCN1c2ccccc2CCc2ccc(Cl)cc21` [Clomipramine hydrochloride] (top concentration 46.0829 µM), the “area under the dose-response curve” value in assay [1] amounted to 357; in assay [2], 415. The results for the viability in assay [3] and in assay [4] were 10.3% and 19.4%, respectively.

As to `Clc2cccc(Cl)c2\N=C1/NCCN1` [Clonidine] (top concentration 46.0829 µM), the “area under the dose-response curve” value in assay [1] came to 591; in assay [2], 537. The values for the viability in assay [3] and in assay [4] were 92.5% and 130%, respectively.

For `COC(=O)[C@H](c1ccccc1Cl)N1CCc2sccc2C1` [Clopidogrel bisulfate] (top concentration 46.0829 µM), the “area under the dose-response curve” value came out at 478 in assay [1] and 542 in assay [2]. The figures for the viability in assay [3] and in assay [4] were 82% and 103%, respectively.

`Nc1cc(c(cc1S(=O)(N)=O)S(N)(=O)=O)C(/Cl)=C(/Cl)Cl` [Clorsulon] (top concentration 46.0829 µM): the “area under the dose-response curve” value came out at 383 in assay [1] and 525 in assay [2]. Moreover, the viability in assay [3] was found to be 46.3%; in assay [4] it was 87.5%.

For `Clc1ccccc1C(c1ccccc1)(c1ccccc1)n1ccnc1` [Clotrimazole] (top concentration 46.0829 µM), the entries for the “area under the dose-response curve” value in assay [1] and in assay [2] were 527 and 525, respectively. The viability came out at 72.4% in assay [3] and 64.8% in assay [4].

Turning to `CN1CCN(C2=Nc3cc(Cl)ccc3Nc3ccccc32)CC1` [Clozapine] (top concentration 46.0829 µM), the “area under the dose-response curve” value was 462 in assay [1] and 537 in assay [2]. Moreover, the viability was found to be 96.2% in assay [3] and 94.2% in assay [4].
